# Measurements as given in the supplement of paper PMC3974653.
# Structures can show the parent of a compound that is named as a salt.
# Tested on: MTT (mouse pheochromocytoma)
# Experiment: IC50 of cell viability (ATP content)
# Details: (24 or 48 h)
# In short: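 MTT mouse pheochromocytoma cells in white 1536-well plates were treated for 24 or 48 hrs with library compounds at 8 final concentrations from 0.5 nM to 46 µM. ATP content was measured with CellTiter-Glo luminescence, using positive-control wells as 100% and DMSO wells as 0%. IC50 came from a four-parameter logistic fit.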
row,IC50 of cell viability,SMILES
1,> 46 µM,CCCOC(=O)c1ccc(O)cc1 [Propyl-4-hydroxybenzoate]
2,> 46 µM,COc1ccc(CC(C)NCC(O)c2ccc(O)c(NC=O)c2)cc1 (configuration not stated) [ARFORMOTEROL TARTRATE]
3,> 46 µM,O=C1C(CCC(O)c2ccc(F)cc2)C(c2ccc(O)cc2)N1c1ccc(F)cc1 (configuration not stated) [EZETIMIBE]
4,> 46 µM,O=C1CCC(N2C(=O)c3ccccc3C2=O)C(=O)N1 (racemic) [(+-)-Thalidomide]
5,> 46 µM,C[C@@]12CC[C@H]\3[C@@H](CC\C4=C3CCC(=O)C4)[C@H]1CC[C@]2(O)C#C [Norethynodrel]
6,> 46 µM,"Nc1cccc2c(N)cccc12 [1,5-Diaminonaphthalene]"
7,> 46 µM,N[C@@H](CSCCCO)C(=O)O [FUDOSTEINE]
8,> 46 µM,CCC1OC(=O)C[C@@H](O)[C@H](C)[C@@H](OC2OC(C)CC(N(C)C)C2O)[C@@H](CC=O)C[C@@H](C)C(=O)/C=C/[C@]2(C)OC2C1C (some centres not stated) [ROSAMICIN]
9,> 46 µM,CN1CCN(c2c(F)cc3c(=O)c(C(=O)O)cn4c3c2OCN4C)CC1 [Marbofloxacin]
10,> 46 µM,C\C1=N\C2=C(C=C(Cl)C=C2)[S+]([O-])(=O)N1 [DIAZOXIDE]
11,> 46 µM,CC(=O)NO [ACETOHYDROXAMIC ACID]
12,> 46 µM,CCOC(=O)C/1=C/C(OC(CC)CC)C(NC(C)=O)C(N)C1.OC(C(O)C(O)=O)C(O)=O (configuration not stated) [OSELTAMIVIR TARTRATE]
13,> 46 µM,Cl.CN(C)C\1[C@@H]2C[C@H]3CC4=C(C(=CC=C4N(C)C)O)C(=O)\C3=C(O)\[C@]2(O)C(=O)\C(=C1O)C(N)=O (some centres not stated) [MINOCYCLINE HYDROCHLORIDE]
14,> 46 µM,C=CCc1cc(OC)c(O)c(C(=O)NCCO)c1 [Alibendol]
15,> 46 µM,CCOc1ccc(/N=C(\C)Nc2ccc(OCC)cc2)cc1 [Phenacaine hydrochloride]
16,> 46 µM,CCN1CCN(c2cc(-c3ccc(F)cc3)c3c(n2)CCCCCC3)CC1 [BLONANSERIN]
17,> 46 µM,CC1=C(/C=C/C(C)=C/C=C/C(C)=C/C=C/C=C(C)/C=C/C=C(C)/C=C/C2=C(C)CCCC2(C)C)C(C)(C)CCC1 [beta-CAROTENE]
18,> 46 µM,CCN(CC)CCNC(=O)c1cc(Br)c(N)cc1OC [BROMOPRIDE]
19,> 46 µM,OC1(c2ccc(Cl)c(C(F)(F)F)c2)CCN(CCCC(c2ccc(F)cc2)c2ccc(F)cc2)CC1 [Penfluridol]
20,> 46 µM,O=C(Nc1ccc(C(=O)O)c(O)c1)c1ccccc1 [CALCII BENZAMIDOSALICYLAS]

row,IC50 of cell viability,SMILES
1,> 46 µM,CN1c2ccccc2C(NCCCCCCC(=O)[O][Na])c2ccc(Cl)cc2[S+]1(=O)[O-] (configuration not stated) [TIANEPTINUM]
2,> 46 µM,CCCCCC(=O)O[C@@]1(CC[C@H]2[C@@H]3CCC/4=C/C(=O)CC[C@]4(C)[C@H]3CC[C@]12C)C(C)=O [17a-Hydroxyprogesterone hexanoate]
3,> 46 µM,CC(C)NCC(O)c1ccc(O)c(O)c1 (configuration not stated) [ISOPROTERENOL]
4,> 46 µM,O=C1/C(=C2\Nc3ccc(S(=O)(=O)O)cc3C2=O)Nc2ccc(S(=O)(=O)O)cc21 [Indigo carmine]
5,> 46 µM,Cc1nc([N+](=O)[O-])cn1-c1ccc([N+](=O)[O-])cc1 [Nitrefazole]
6,> 46 µM,CCC1Nc2cc(Cl)c([S+](N)(=O)[O-])cc2[S+](=O)([O-])N1 (configuration not stated) [Ethiazide]
7,> 46 µM,COc1ccc(-c2ccc3cc(C(=O)O)ccc3c2)cc1C12CC3CC(CC(C3)C1)C2 [Adapalene]
8,> 46 µM,CCOC(=O)C(CCc1ccccc1)NC(C)C(=O)N1Cc2cc(OC)c(OC)cc2CC1C(=O)O (configuration not stated) [MOEXIPRIL HYDROCHLORIDE]
9,> 46 µM,Cc1ccc(O)c(-n2nc3ccccc3n2)c1 [Drometrizole]
10,> 46 µM,CC(=O)Nc1ccc(O)cc1 [Acetaminophen (4-hydroxyacetanilide)]
11,> 46 µM,Oc1cc(O)c2c(c1)OC(c1ccc(O)c(O)c1)C(O)C2 (configuration not stated) [EPICATECHIN]
12,> 46 µM,CC(=O)OCC(=O)[C@H]1CC[C@H]2[C@@H]3CCC/4=C/C(=O)CC[C@]4(C)[C@H]3CC[C@]12C [DESOXYCORTICOSTERONE ACETATE]
13,> 46 µM,CSc1ccc2c(c1)N(CCC1CCCCN1C)c1ccccc1S2 (configuration not stated) [THIORIDAZINE]
14,> 46 µM,CO/N=C(/C(=O)N[C@@H]1C(=O)N2C(C(=O)O)=C(CSc3nnnn3C)CS[C@H]12)c1csc(N)n1 [CEFMENOXIME HYDROCHLORIDE]
15,> 46 µM,NC(CCC(=O)N[C@@H](CS)C(=O)NCC(=O)O)C(=O)O (some centres not stated) [GLUTATHIONE]
16,> 46 µM,CC1OC(OCC2OC(OC/3=C(/OC4=C(C(=CC(=C4)OCCO)O)C3=O)C5=CC=C(OCCO)C(=C5)OCCO)C(O)C(O)C2O)[C@@H](O)C(O)C1O (some centres not stated) [TROXERUTIN]
17,> 46 µM,CC(=O)Nc1ccccc1 [Acetanilide]
18,> 46 µM,O=C1OC(c2cc(I)c(O)c(I)c2)(c2cc(I)c(O)c(I)c2)c2ccccc21 [Tetraiodophenolphthalein]
19,> 46 µM,CCN(CC)C(=O)c1cccc(C)c1 [DIETHYLTOLUAMIDE]

row,SMILES,IC50 of cell viability
1,CC(C)NNC(=O)c1ccncc1.O=[S+]([O-])(O)O [IPRONIAZID SULFATE],> 46 µM
2,[H][C@]12CC[N@@]3CC=C(COC(=O)[C@](C)(O)[C@](C)(O)[C@@]([H])(C)C(=O)O1)[C@]23[H] [Monocrotaline],> 46 µM
3,C[N@+]1([O-])[C@@H]2CC[C@@H]1C[C@@H](OC(=O)[C@@H](CO)c1ccccc1)C2 [Atropine-N-oxide hydrochloride],> 46 µM
4,CC(C)(C)NC[C@H](O)c1ccc(O)cc1Cl [MELUADRINE TARTRATE],> 46 µM
5,C[C@]12CC[C@H]3[C@@H](CC/C4=C/C(=O)CC[C@]34C)[C@@H]1CC[C@H]2O [Testosterone],> 46 µM
6,Nc1ccc(/N=N/c2ccccc2)cc1 [4-Aminoazobenzene],> 46 µM
7,Cl\C1=C(/Cl)C2(Cl)C3C4CC(C5OC45)C3C1(Cl)C2(Cl)Cl (configuration not stated) [ENDRIN],> 46 µM
8,CCCCCC(C)N.O=[S+]([O-])(O)O (configuration not stated) [TUAMINOHEPTANE SULFATE],> 46 µM
9,Cc1ccccc1 [Toluene],> 46 µM
10,CCC(=O)OC1[C@@H](N2CCCCC2)C[C@H]2[C@@H]3CC[C@H]4C[C@H](OC(C)=O)[C@@H](N5CCCCC5)C[C@]4(C)[C@H]3CC[C@]12C (some centres not stated),> 46 µM
11,"COc1cc(C[C@H](C)N)c(OC)cc1Br [(+)-4-Bromo-2,5-dimethoxyamphetamine]",> 46 µM
12,CCCCNCC(O)c1ccc(O)cc1 (configuration not stated) [Bametano],> 46 µM
13,O=[N+]([O-])c1cc([As](=O)(O)O)ccc1O [Roxarsone],> 46 µM
